Like-named read-outs stand apart in the source and are kept apart here.
Columns and labels:
[1] = Human coffee intervention study: plasma concentrations after roasted coffee brew by UPLC-MS/MS; type: in vivo; details: for plasma level at baseline / concentration at 0 h: 0 h; for plasma level at baseline: before coffee intake; for samples above the LLOQ / study participants in whom the conjugate appeared within 10 h after coffee: n = 10; for concentration at 1 h / concentration at 4 h / concentration at 10 h / concentration at 0 h: human, plasma, 200 mL; for concentration at 1 h / concentration at 4 h / concentration at 10 h / Cmax / concentration at 0 h: oral; for Cmax / time of estimated cmax: human plasma after coffee brew (200 mL); for Cmax: n = 10, mean ± SD, read-out: estimated cmax in plasma; for time of estimated cmax: sampling only at 0, 1, 4, 10 h
Experimental: The study included ten volunteers (5 females, 5 males) (age: 28.3 ± 2.3 years; BMI: 21.89 ± 2.22 kg/m^2). The intervention study took place from November 5, 2021, to February 17, 2022, in the core facility human studies of the ZIEL Institute for Food and Health of the Technical University of Munich. The study was performed in agreement with the Declaration of Helsinki, and all participants gave written informed consent. The study was approved by the Ethics Committee of the Technical University of Munich (5798/13 S-SR) and registered in the German Register of Clinical Studies (DRKS00005083).
The study participants underwent a dietary protocol that excluded all forms of coffee consumption. Additionally, chocolate, black/green/white, mate tea, cola, energy drinks, and beauty products containing caffeine (e.g., shampoos, creams) were prohibited 1 week before the test day. Furthermore, the study participants received a standardized meal the evening before the test day. The meal was composed of pasta, margarine, and salt, and the amount of energy was calculated based on the participant’s basal energy demand. On the morning of the test day, the participants were in a fastened state and received water (control samples) or coffee brew (coffee intervention) as breakfast. Blood was sampled before coffee intake (0 h) and at defined time points (1, 4, and 10 h) after coffee intake. 6 h after the coffee intake, the participants received lunch, the same standardized meal as the previous dinner. The administered coffee was prepared from a coffee capsule (Nespresso, ROMA) with 100 mL water. The administered volume of the coffee brew was 200 mL. Based on the coffee powder per capsule ([…]), the concentrations of 2 (2.8 μmol/g) and 3 (1.1 μmol/g), respectively,[10] and an estimated extraction rate of 100%, the total ingested amounts were 33.6 μmol (2) and 13.2 μmol (3).
In an Eppendorf tube (1.5 mL), aliquots (50 μL each) of the calibration standard, sample, or QC, respectively, were mixed with the IS solution (1000 nM in ethanol, 50 μL) and acetonitrile/ethanol (9 + 1, v + v, 50 μL) was added. After vortexing, suspensions were cleared by centrifugation (12,000 rpm, 4 °C, 10 min), and the supernatant (∼100 μL) was transferred to an HPLC vial with 200 μL insert for analysis (5 μL injection).
The UPLC–MS/MS system consisted of a Shimadzu Nexera X2 UPLC system (Shimadzu, Duisburg, Germany) hyphenated to a QTrap 5500 MS/MS system (Sciex, Darmstadt, Germany) operating in negative electrospray (ESI^–) mode with the following ion source parameters: ion spray voltage: −4500 V; source temperature: 500 °C; nebulizer gas: 55 psi; heater gas: 65 psi; and curtain gas: 35 psi. The MS/MS parameters, including the collision cell entrance potential (CEP), declustering potential (DP), collision energy (CE), and cell exit potential (CXP), were tuned for each compound and mass transition and are summarized in Supporting Table S3. The dwell time for each compound was 30 ms, and the total cycle time was 0.75 s. Chromatographic separation was achieved on a C18 column (Kinetex C18, 100 mm × 2.1 mm, 1.7 μm, Phenomenex, Aschaffenburg, Germany) at a flow rate of 500 μL/min flow rate. Eluent A was 0.1% formic acid in water, and eluent B was 0.1% formic acid in acetonitrile. B was kept at 3% (1 min), increased to 25% (in 3 min), 90% (in 2 min, 1 min isocratic), and 3% (0.5 min, 2.5 min isocratic). The total time of the analysis was 10 min. The column effluent was introduced from the waste to the MS/MS system between 3 and 7 min.
We applied this method to human plasma samples from a coffee intervention study to investigate the appearance of coffee compounds 1–3 and metabolites M1–M3. Ten participants underwent a washout period (7 days) and then consumed one dose of […]. Blood samples were taken at baseline (0 h) and 1, 4, and 10 h after the intervention. […]

[2] = parameters: method as in PMID 36442242; details: coffee drinkers' urine, four of six samples, qualitative; cited from earlier work
[3] = both sexes, 1 h after coffee brew (200 mL), human plasma, values above LLOQ, read-out: plasma concentration, mean ± SD
[4] = both sexes, 4 h after coffee brew (200 mL), human plasma, values above LLOQ, read-out: plasma concentration, mean ± SD
[5] = both sexes, 10 h after coffee brew (200 mL), human plasma, values above LLOQ, read-out: plasma concentration, mean ± SD
[6] = participant cbdu, 10 h after coffee, read-out: plasma concentration, individual
[7] = participant eogo, 1 h after coffee, b = below LLOQ, read-out: plasma concentration, individual
[8] = participant eogo, 10 h after coffee, b = below LLOQ, read-out: plasma concentration, individual
[9] = participant ggot, 4 h after coffee, b = below LLOQ, read-out: plasma concentration, individual
[10] = participant ggot, 10 h after coffee, b = below LLOQ, read-out: plasma concentration, individual
[11] = participant imhz, 10 h after coffee, read-out: plasma concentration, individual
[12] = participant mgjj, 10 h after coffee, read-out: plasma concentration, individual
[13] = participant rrmk, 4 h after coffee, b = below LLOQ, read-out: plasma concentration, individual
[14] = participant rrmk, 10 h after coffee, read-out: plasma concentration, individual
[15] = participant wbqj, 4 h after coffee, b = below LLOQ, read-out: plasma concentration, individual
[16] = participant wbqj, 10 h after coffee, b = below LLOQ, read-out: plasma concentration, individual
[17] = participant wbvs, 1 h after coffee, read-out: plasma concentration, individual
[18] = participant wbvs, 4 h after coffee, read-out: plasma concentration, individual
[19] = participant wbvs, 10 h after coffee, read-out: plasma concentration, individual
[20] = participant xrwz, 10 h after coffee, b = below LLOQ, read-out: plasma concentration, individual
[21] = participant ayia, 1 h after coffee, read-out: plasma concentration, individual
[22] = participant ayia, 10 h after coffee, read-out: plasma concentration, individual
[23] = participant cbdu, 1 h after coffee, b = below LLOQ, read-out: plasma concentration, individual
[24] = participant ggot, 1 h after coffee, read-out: plasma concentration, individual
[25] = participant wbqj, 1 h after coffee, b = below LLOQ, read-out: plasma concentration, individual

Row | plasma level at baseline ([1]; human plasma) | samples above the LLOQ ([1]; 10 h after coffee) | concentration at 1 h [1, 3] | concentration at 10 h [1, 5] | Cmax ([1]; both sexes) | time of estimated cmax [1] | study participants in whom the conjugate appeared within 10 h after coffee ([1]; human plasma) | concentration at 10 h [1, 6] | concentration at 10 h [1, 8] | concentration at 10 h [1, 10] | concentration at 10 h [1, 11] | concentration at 10 h [1, 12] | concentration at 10 h [1, 16] | concentration at 10 h [1, 19] | SMILES | concentration at 4 h [1, 4] | concentration at 1 h [1, 7] | concentration at 4 h [1, 9] | concentration at 4 h [1, 13] | concentration at 10 h [1, 14] | concentration at 4 h [1, 15] | also measured
1 | below the LLOQ | 90% | 1.7 nM | 55 ± 57.7 nM | 55 ± 57.7 nM | 10 h | 90% | 11.6 nM | 40.8 nM | 180 nM | 9.3 nM | 24.3 nM | 64.1 nM | 111 nM | CC1C(=O)C23CCC4C(C(=O)O)CC(OC5OC(C(=O)O)C(O)C(O)C5O)CC4(C)C2CCC1C3 [M3, 2β-hydroxy-15-oxoatractylan-4α-carboxylic acid-2-O-β-D-glucuronide] | 1.3 ± 1.1 nM | 0.3 nM | 2.9 nM | 0.7 nM | 50.6 nM | 0.9 nM | plasma concentration in samples from two individuals ([1]; 10 h after coffee, comparatively high individual values): 180.0 nM; concentration at 10 h ([1]; 10 h after coffee, comparatively high individual values, read-out: plasma concentration in samples from two individuals): 111 nM; concentration at 0 h ([1]; participant eogo, b = below LLOQ, read-out: plasma concentration, individual): 0.4 nM; concentration at 4 h ([1]; participant eogo, 4 h after coffee, b = below LLOQ, read-out: plasma concentration, individual): 0.1 nM; concentration at 0 h ([1]; participant wbvs, b = below LLOQ, read-out: plasma concentration, individual): 0.9 nM; concentration at 1 h [1, 17]: 1.7 nM; concentration at 4 h [1, 18]: 1.9 nM; concentration at 10 h [1, 20]: 4.1 nM; urine samples in which detected [2]: 67%
2 |  |  |  |  |  |  |  |  |  |  |  |  |  |  | CC1C(=O)C23CCC4C(C(=O)O)CC(O)CC4(C)C2CCC1C3 (stereo not drawn) [compound 5, 2β-hydroxy-15-oxoatractylan-4α-carboxylic acid] |  |  |  |  |  |  | appearance in plasma after coffee ([1]; all samples 1, 4, 10 h after coffee brew (200 mL), human plasma): did not appear in the plasma
3 | below the LLOQ | 80% | 0.63 ± 0.14 nM | 2.5 ± 1.9 nM | 2.5 ± 1.9 nM | 10 h | 80% | 0.9 nM | 3.1 nM | 0.6 nM | 1.1 nM | 0.8 nM | 2.8 nM | 5.1 nM | CC1C(=O)C23CCC4C(C(=O)OC5OC(C(=O)O)C(O)C(O)C5O)CC(O)CC4(C)C2CCC1C3 [M2, 2β-hydroxy-15-oxoatractylan-4α-carboxy-19-O-β-D-glucuronide] |  |  |  |  |  |  | plasma concentration, mean ± SD ([1]; 1 h after coffee brew (200 mL), human plasma, values above LLOQ): 0.6 ± 0.1 nM; concentration at 1 h [1, 21]: 0.5 nM; concentration at 4 h ([1]; participant ayia, 4 h after coffee, b = below LLOQ, read-out: plasma concentration, individual): 0.1 nM; concentration at 10 h [1, 22]: 5.6 nM; concentration at 1 h [1, 23]: 0.1 nM; concentration at 1 h [1, 24]: 0.7 nM; concentration at 0 h ([1]; participant rrmk, b = below LLOQ, read-out: plasma concentration, individual): 0.1 nM; concentration at 1 h [1, 25]: 0.01 nM; urine samples in which detected [2]: 67%

Row | SMILES | plasma level at baseline ([1]; human plasma) | samples above the LLOQ ([1]; 10 h after coffee) | concentration at 1 h [1, 3] | concentration at 10 h [1, 5] | Cmax ([1]; both sexes) | time of estimated cmax [1] | study participants in whom the conjugate appeared within 10 h after coffee ([1]; human plasma) | concentration at 10 h [1, 6] | concentration at 10 h [1, 8] | concentration at 10 h [1, 10] | concentration at 10 h [1, 11] | concentration at 10 h [1, 12] | concentration at 10 h [1, 16] | concentration at 10 h [1, 19] | concentration at 4 h [1, 4] | concentration at 1 h [1, 7] | concentration at 4 h [1, 9] | concentration at 4 h [1, 13] | concentration at 10 h [1, 14] | concentration at 4 h [1, 15] | also measured
4 | C=C1[C@@H]2CC[C@@H]3[C@@](CCC4[C@H](C(=O)O)C[C@@H](O)C[C@]43C)(C2)[C@@H]1O (some centres unmarked) [compound 1, atractyligenin] |  |  | 41.9 ± 12.5 nM | 23.3 ± 10.5 nM | 41.9 ± 12.5 nM | 1 h |  | 19 nM | 8 nM | 2.3 nM | 43.7 nM | 16.5 nM | 4.7 nM | 17 nM | 40.1 ± 22.9 nM | 43.4 nM | 13.8 nM | 68.1 nM | 17.9 nM | 59.7 nM | drop of plasma concentration until 10 h ([1]; from the level between 1 and 4 h to 10 h after coffee): ~45%; concentration at 1 h [1, 21]: 36.5 nM; concentration at 10 h [1, 22]: 25.6 nM; concentration at 1 h [1, 23]: 31.6 nM; concentration at 1 h [1, 24]: 49.2 nM; concentration at 1 h ([1]; participant imhz, 1 h after coffee, read-out: plasma concentration, individual): 70.5 nM; concentration at 4 h ([1]; participant imhz, 4 h after coffee, read-out: plasma concentration, individual): 19.6 nM; concentration at 1 h ([1]; participant mgjj, 1 h after coffee, read-out: plasma concentration, individual): 34.7 nM; concentration at 4 h ([1]; participant mgjj, 4 h after coffee, read-out: plasma concentration, individual): 17.7 nM; concentration at 1 h ([1]; participant rrmk, 1 h after coffee, read-out: plasma concentration, individual): 42.7 nM; concentration at 1 h [1, 25]: 49.1 nM; concentration at 1 h [1, 17]: 36.1 nM; concentration at 4 h [1, 18]: 35.2 nM; concentration at 1 h ([1]; participant xrwz, 1 h after coffee, read-out: plasma concentration, individual): 26 nM; concentration at 10 h [1, 20]: 10.4 nM; participants in whom plasma concentration increased between 4 and 10 h ([1]; individual plots, after first maximum at 1 h): 60%
